The results in this text go back to PubChem BioAssay (NCI).

Test systems include SF-539 CNS; SK-MEL-28 melanoma; T-47D breast; HT29 colon; SF-268 CNS; RPMI-8226 leukemia; K-562 leukemia; HCC-2998 colon; MCF7 breast; CAKI-1 renal; UACC-257 melanoma; NCI/ADR-RES ovarian; A549 NSCLC; MOLT-4 leukemia; MDA-N; TK-10 renal; SW-620 colon; IGROV1 ovarian; MALME-3M melanoma.
Common to all, as to experiment: NCI anticancer screen, dose series, 48 h

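How tested: cells in 96-well plates exposed to compound for 48 hours at five concentrations. Definition used: TGI = concentration required for complete inhibition of growth.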

For the molecule `CN(C)CCNC(=O)c1c(O)ccc2c1c1c(n2CCc2ccccc2)C(=O)c2ccccc2C1=O`, the TGI worked out at 11.1 µM with SF-539 CNS; 4.57 µM with SK-MEL-28 melanoma; 8.5 µM with T-47D breast; 19.3 µM in the assay on HT29 colon; 15 µM in the assay with SF-268 CNS; 11.6 µM with RPMI-8226 leukemia. For the same molecule, the TGI came to 6.07 µM with K-562 leukemia; 2.96 µM in the assay on HCC-2998 colon; 12.1 µM in the assay on MCF7 breast; 19.2 µM with CAKI-1 renal; 10.4 µM in the assay on UACC-257 melanoma; 29.4 µM with NCI/ADR-RES ovarian. Moreover, the TGI stood at 23.2 µM in the assay on A549 NSCLC; 16.2 µM in the assay on MOLT-4 leukemia; 5.34 µM with MDA-N; 18.4 µM with TK-10 renal; 20.6 µM in the assay with SW-620 colon; 21.8 µM in the assay with IGROV1 ovarian. This molecule also had a TGI in the assay with MALME-3M melanoma of 9.35 µM.

On to `C=C1C(=O)OC2C3OC(C)(CCC(O)C3COC(C)=O)CC(OC(=O)/C(=C/C)COC(C)=O)C12` (configuration not stated), for which the TGI in the assay on SF-539 CNS came out at 3.22 µM; with SK-MEL-28 melanoma, 0.431 µM; with T-47D breast it was 0.424 µM; in the assay on HT29 colon it was 0.521 µM; in the assay with SF-268 CNS, 7.84 µM; in the assay with RPMI-8226 leukemia, 0.339 µM. In addition, the TGI with K-562 leukemia is 6.42 µM; with HCC-2998 colon, 2.59 µM; with MCF7 breast, 0.533 µM; in the assay on CAKI-1 renal, 0.39 µM; with UACC-257 melanoma, 1.96 µM; with NCI/ADR-RES ovarian, 11 µM. Besides, the TGI is 22.1 µM in the assay with A549 NSCLC; 0.389 µM with MOLT-4 leukemia; 0.645 µM with MDA-N; 0.562 µM in the assay with TK-10 renal; 0.261 µM in the assay with SW-620 colon; 2.85 µM in the assay on IGROV1 ovarian. In the assay on MALME-3M melanoma, this molecule came in with a TGI of 0.0763 µM.

With `O=C1N(c2ccccc2)C(=S)/C(=C/c2ccc(Cl)cc2)N1c1ccc(Cl)cc1`, the TGI in the assay on SF-539 CNS was 41.2 µM; in the assay with SK-MEL-28 melanoma it was greater than 100 µM; in the assay with T-47D breast, greater than 100 µM; with HT29 colon it was greater than 100 µM; with SF-268 CNS, greater than 100 µM; in the assay with RPMI-8226 leukemia, 52.5 µM. Also, the TGI with K-562 leukemia, with HCC-2998 colon, in the assay on MCF7 breast, in the assay on CAKI-1 renal, with UACC-257 melanoma and with NCI/ADR-RES ovarian was greater than 100 µM in each case. Further, the TGI in the assay with A549 NSCLC is greater than 100 µM; in the assay with MOLT-4 leukemia it was 13.5 µM; with MDA-N, greater than 100 µM; with TK-10 renal it was 89.8 µM; in the assay on SW-620 colon, greater than 100 µM; with IGROV1 ovarian, greater than 100 µM. For the same molecule, the TGI in the assay on MALME-3M melanoma is 63.9 µM.
